Source: patent US20250134870A1, “PATHWAY MODULATOR, PHARMACEUTICAL COMPOSITION HAVING SAME, USE THEREOF, AND THERAPEUTIC METHOD USING SAME” (Jiangsu Yahong Meditech Co., Ltd., priority 2021, published 2025)

Columns and labels:
[1] = tested on: imiquimod (IMQ)-induced psoriasis; assay: Imiquimod (IMQ)-induced psoriasis in mice: erythema, scales, thickness, total score, AUC (Example 8); format: in vivo, Balb/c mice; parameters: key to erythema score / scales score / thickness score: 0 = none, 1 = mild, 2 = moderate, 3 = obvious/severe; key to total score of erythema + scales + thickness: sum of three 0-3 scores (erythema + scales + thickening), 0-9
Protocol: All mice were shaved with a pet shaver to get an area of 2×3 cm on the back one day before the start of the experiment.
65 animals were randomly divided into groups according to body weight, and the dosing regimen was as follows.
Imiquimod (IMQ) cream: 62.5 mg of IMQ cream for each mouse in G2 to G7; Dexamethasone (DEX) ointment: 70 mg of ointment for each mouse in G4;
Tofacitinib: Tofacitinib was dissolved in dimethyl sulfoxide to 5 mg/mL, and 50 μL was added to IMQ cream for daily treatment.
Mice in Groups 2 to 7 received daily topical doses of 62.5 mg of IMQ cream on their shaved back from Day 0 to Day 7.
Dosing of the test compounds and reference substance was carried out according to Table 29 for 7 consecutive days.
To assess the severity of inflammation of skin on the back, the skin on the back was scored according to Table 30. Erythema, scales and thickening were scored independently on a scale of 0 to 3, 0, none; 1. mild; 2. moderate; 3. obvious/severe.
The inhibition rate was calculated according to the following formula: Inhibition rate=[AUC (solvent)−AUC (treatment)]/AUC (solvent)×100%. Wherein, solvent referred to the solvent group corresponding to the route of administration.

[2] = tested on: 2,4-dinitrobenzenesulfonic acid (DNBS)-induced colitis; assay: DNBS-induced enteritis/colitis in rats: body weight and stool score (Example 10); format: in vivo, Wistar rats; conditions: 3, 10 and 30 mg/kg
Protocol: The 90 animals were randomly grouped on Day-1 (i.e., the day before the experiment) based on animal body weight to ensure that the body weight of each group of animals were similar, so as to reduce bias. Rats were fasted for 40 hours before the experiment and were injected subcutaneously with 5% glucose saline (10 mL/kg, once daily) during fasting. • Experimental grouping:
On Day 1 of the experiment, fasting rats were anesthetized by intraperitoneal injection with Zoletil (25 mg/kg Tiletamine and 25 mg/kg Zolazepam) and 5 mg/kg Xylazine.
In groups G2-G6, a hose was inserted from the anus to left colic flexure (about 8 cm from the anus) and colitis was induced by DNBS enema (0.5 mL/animal) in rats. The normal control group (G1) received 30% ethanol enema by the same process. The head of the animal after enema was lowered for 15 min, and then the animal was kept in Trendelenburg position until waked to avoid backflow of the enema fluid.
The percentage of body weight was calculated according to the following formula: (body weight on Day X-initial weight)/initial weight]×100%.
(2) Stool score: during the experiment, the stool state of rats was scored daily (0=normal, 1=wet/sticky, 2=loose, 3=liquid).

[3] = tested on: dextran sulfate sodium (DSS)-induced colitis; assay: DSS-induced colitis in mice, 3.1% DSS: body weight change and DAI (Example 11); format: in vivo, C57BL/6 mice; conditions: 50 mg/kg, QD
From the text: The experimental mice were housed in an SPF grade animal room for three days for adaptation, and randomly divided into 7 groups (6 model groups and 1 control group) of 10 mice in each group. Dosing of mice started on Day 0 and ended on Day 7.
The mouse enteritis model of this Example was established by DSS induction: mice in the model group were provided with a 3.1% DSS (dextran sulfate sodium, molecular weight 36,000-50,000) aqueous solution from Day 0 to Day 7, and the DSS aqueous solution was replaced with freshly prepared solution every day to prevent degradation. Mice in the normal control group were provided with normal water. The experimental period was 9 days, and the mice were euthanized and samples were collected at the experimental endpoint.
The DAI score was assessed daily. The DAI score consisted of 3 parts: body weight change, stool characteristics, and hematochezia (or occult blood) score, and the specific scoring criteria were as shown in Table 49. The DAI scoring of all mice was done by the same staff throughout the experiment.
Mice were euthanized at the experimental endpoint. The colon of mice was dissected, and photograph was taken, the length was measured, and the contents were removed before weighing.
The data were expressed as mean±standard error (X±s). Body weight change and disease activity score were statistically analyzed by two-way ANOVA and comparison between groups were performed by Dunnett's test. Other data were statistically analyzed by one-way ANOVA and comparison between groups were performed by Dunnett's test. All analyses were performed using GraphPad Prism software. * P<0.05, ** P<0.01, *** P<0.005, **** P<0.0001 vs. solvent group.

[4] = Day 0, 50 mg/kg oral QD (Nepicastat A)
[5] = Day 0, 100 mg/kg topical QD (Nepicastat B)
[6] = Day 0, group Nepicastat A (50 mpk oral)
[7] = Day 0, group Nepicastat B (100 mpk topical)
[8] = Day 1, 50 mg/kg oral QD (Nepicastat A)
[9] = Day 1, 100 mg/kg topical QD (Nepicastat B)
[10] = Day 1, group Nepicastat A (50 mpk oral)
[11] = Day 1, group Nepicastat B (100 mpk topical)
[12] = Day 2, 50 mg/kg oral QD (Nepicastat A)
[13] = Day 2, 100 mg/kg topical QD (Nepicastat B)
[14] = Day 2, group Nepicastat A (50 mpk oral)
[15] = Day 2, group Nepicastat B (100 mpk topical)
[16] = Day 3, 50 mg/kg oral QD (Nepicastat A)
[17] = Day 3, 100 mg/kg topical QD (Nepicastat B)
[18] = Day 3, group Nepicastat A (50 mpk oral)
[19] = Day 3, group Nepicastat B (100 mpk topical)
[20] = Day 4, 50 mg/kg oral QD (Nepicastat A)
[21] = Day 4, 100 mg/kg topical QD (Nepicastat B)
[22] = Day 4, group Nepicastat A (50 mpk oral)
[23] = Day 4, group Nepicastat B (100 mpk topical)
[24] = Day 5, 50 mg/kg oral QD (Nepicastat A)
[25] = Day 5, 100 mg/kg topical QD (Nepicastat B)
[26] = Day 5, group Nepicastat A (50 mpk oral)
[27] = Day 5, group Nepicastat B (100 mpk topical)
[28] = Day 6, 50 mg/kg oral QD (Nepicastat A)
[29] = Day 6, 100 mg/kg topical QD (Nepicastat B)
[30] = Day 6, group Nepicastat A (50 mpk oral)
[31] = Day 6, group Nepicastat B (100 mpk topical)
[32] = Day 7, 50 mg/kg oral QD (Nepicastat A)
[33] = Day 7, 100 mg/kg topical QD (Nepicastat B)
[34] = Day 7, group Nepicastat A (50 mpk oral)
[35] = Day 7, group Nepicastat B (100 mpk topical)
[36] = oral administration 50 mg/kg, Day 5 to Day 7

NCc1c[nH]c(=S)n1[C@H]1CCc2c(F)cc(F)cc2C1 [Nepicastat]
progression and incidence of the disease ([1]; 50 mg/kg oral and 100 mg/kg topical QD × 7 days): did not affect the progression and incidence of the disease, but showed efficacy at the later stages of the disease course (Day 5 to Day 7) | efficacy on the clinical score of the skin ([1]; 100 mpk topical QD × 7 days): no significant efficacy | erythema score [1, 4]: 0 | scales score [1, 4]: 0 | erythema score [1, 5]: 0 | scales score [1, 5]: 0 | thickness score [1, 6]: 0 | total score of erythema + scales + thickness [1, 6]: 0 | thickness score [1, 7]: 0 | total score of erythema + scales + thickness [1, 7]: 0 | erythema score [1, 8]: 0 | scales score [1, 8]: 0 | erythema score [1, 9]: 0 | scales score [1, 9]: 0 | thickness score [1, 10]: 0.6 | total score of erythema + scales + thickness [1, 10]: 0.6 | thickness score [1, 11]: 0.9 | total score of erythema + scales + thickness [1, 11]: 0.9 | erythema score [1, 12]: 1.4 | scales score [1, 12]: 0 | erythema score [1, 13]: 1.5 | scales score [1, 13]: 0 | thickness score [1, 14]: 1.2 | total score of erythema + scales + thickness [1, 14]: 2.6 | thickness score [1, 15]: 1.3 | total score of erythema + scales + thickness [1, 15]: 2.8 | erythema score [1, 16]: 1.5 | scales score [1, 16]: 0 | erythema score [1, 17]: 1.8 | scales score [1, 17]: 0 | thickness score [1, 18]: 1.6 | total score of erythema + scales + thickness [1, 18]: 3.1 | thickness score [1, 19]: 1.5 | total score of erythema + scales + thickness [1, 19]: 3.3 | erythema score [1, 20]: 1.6 | scales score [1, 20]: 1.1 | erythema score [1, 21]: 1.8 | scales score [1, 21]: 1.2 | thickness score [1, 22]: 1.4 | total score of erythema + scales + thickness [1, 22]: 4.1 | thickness score [1, 23]: 1.5 | total score of erythema + scales + thickness [1, 23]: 4.5 | erythema score [1, 24]: 1.6 | scales score [1, 24]: 1.6 | erythema score [1, 25]: 1.7 | scales score [1, 25]: 2.5 | thickness score [1, 26]: 1.3 | total score of erythema + scales + thickness [1, 26]: 4.5 | thickness score [1, 27]: 1.3 | total score of erythema + scales + thickness [1, 27]: 5.5 | erythema score [1, 28]: 1.7 | scales score [1, 28]: 1.9 | erythema score [1, 29]: 1.5 | scales score [1, 29]: 2.4 | thickness score [1, 30]: 1.4 | total score of erythema + scales + thickness [1, 30]: 5 | thickness score [1, 31]: 1.3 | total score of erythema + scales + thickness [1, 31]: 5.2 | erythema score [1, 32]: 1.6 | scales score [1, 32]: 2.1 | erythema score [1, 33]: 1.2 | scales score [1, 33]: 2.1 | thickness score [1, 34]: 1.4 | total score of erythema + scales + thickness [1, 34]: 5.1 | thickness score [1, 35]: 1.4 | total score of erythema + scales + thickness [1, 35]: 4.7 | inhibition at 50 mg/kg ([1]; Mus musculus, 168 h, 50 mpk oral QD × 7 days, vs corresponding solvent group, read-out: inhibition rate (AUC of total clinical score)): 23.6% | therapeutic effect on clinical symptoms ([1]; PO 50 mg/kg QD × 7 days, vs solvent group and control group): mild therapeutic effect on clinical symptoms | erythema [1, 36]: inhibited | thickness [1, 36]: inhibited | erythema ([1]; topical administration 100 mg/kg, Day 4 to Day 7): inhibited | effects on DNBS-induced colitis in rats [2]: certain prophylactic and therapeutic effects | symptoms caused by DSS-induced colitis (body weight loss, diarrhea, hematochezia) [3]: effectively alleviated the symptoms of body weight loss, diarrhea and hematochezia | DSS-induced body weight loss ([3]; vs solvent group): effectively alleviated DSS-induced body weight loss | disease activity score (DAI) ([3]; vs solvent group): significantly lower than that in the solvent group
